Reference: patent US8080657B2, “Compounds of reverse turn mimetics and the use thereof” (Choongwae Pharma Corporation, priority 2008, dated 2011)
Where two headings read alike, the source gives them in different places.

Test system: Wnt signaling
Test: TopFlash reporter gene bioassay in SW480 cells
Type: cell-based
[1] = Homo sapiens, SW480, TopFlash reporter gene assay, inhibition of Wnt signaling; read-out: RGA, IC50 (μM) TopF
[2] = Homo sapiens, SW480; read-out: RGA, IC50 (μM) TopF
[3] = TopFlash reporter gene assay, inhibition of Wnt signaling; read-out: RGA, IC50 (μM) TopF

| IC50 [1] | Compound | other results |
| --- | --- | --- |
| 2.37 ± 0.35 µM | C=CCN1CC(=O)N2[C@@H](Cc3ccc(O)cc3)C(=O)N(Cc3cccc(Br)n3)C[C@@H]2N1C(=O)NCc1ccccc1 [compound 177] | – |
| 9.09 ± 0.67 µM | C=CCN1CC(=O)N2[C@@H](Cc3ccc(O)cc3)C(=O)N(CC3=CS(=O)(=O)c4ccccc43)C[C@@H]2N1C(=O)NCc1ccccc1 [compound 263] | – |
| 6.71 ± 1.57 µM | C=CCN1CC(=O)N2[C@@H](Cc3ccc(O)cc3)C(=O)N(Cc3cccc(-c4ccc(O)cc4)n3)C[C@@H]2N1C(=O)NCc1ccccc1 [compound 248] | – |
| 14.2 ± 2.05 µM | C=CCN1CC(=O)N2[C@@H](Cc3ccc(O)cc3)C(=O)N(Cc3cccc(C(=O)NN)c3)C[C@@H]2N1C(=O)NCc1ccccc1 [compound 160] | – |
| 33.1 ± 4.07 µM | C=CCN1CC(=O)N2[C@@H](Cc3ccc(OS(=O)(=O)NC(=O)OCCN(C)C)cc3)C(=O)N(Cc3cccc4c(C(=O)C5CC5)c[nH]c34)C[C@@H]2N1C(=O)NCc1ccccc1 [compound 220] | – |
| 5.41 ± 0.89 µM | C=CCN1CC(=O)N2[C@@H](Cc3ccc(O)cc3)C(=O)N(Cc3cccc(C(=O)N(C)C)c3)C[C@@H]2N1C(=O)NCc1ccccc1 [compound 240] | – |
| 2.81 ± 0.52 µM | C=CCN1CC(=O)N2[C@@H](Cc3ccc(O)cc3)C(=O)N(Cc3cccc(-c4cccc(C#N)c4)n3)C[C@@H]2N1C(=O)NCc1ccccc1 [compound 191] | – |
| 12.5 ± 2.66 µM | C=CCN1CC(=O)N2[C@@H](Cc3ccc(O)cc3)C(=O)N(Cc3ccc(F)c4scnc34)C[C@@H]2N1C(=O)NCc1ccccc1F [compound 158] | – |
| 7.51 ± 2.1 µM | C=CCN1CC(=O)N2[C@@H](Cc3ccc(O)cc3)C(=O)N(Cc3cccc(C(=O)NC)c3[N+](=O)[O-])C[C@@H]2N1C(=O)NCc1ccccc1 [compound 258] | – |
| 10.2 ± 1.55 µM | C=CCN1CC(=O)N2[C@@H](Cc3ccc(O)cc3)C(=O)N(Cc3cc(C(C)(C)C)cc(C(C)(C)C)c3OC)C[C@@H]2N1C(=O)NCc1ccccc1 [compound 150] | – |
| 2.42 ± 0.47 µM | C=CCN1CC(=O)N2[C@@H](Cc3ccc(O)cc3)C(=O)N(Cc3cccnc3-c3ccc(OC)cc3)C[C@@H]2N1C(=O)NCc1ccccc1 [compound 180] | – |
| 2.67 ± 0.28 µM | C=CCN1CC(=O)N2[C@@H](Cc3ccc(O)cc3)C(=O)N(Cc3cccc4ccn(-c5ccccn5)c34)C[C@@H]2N1C(=O)NCc1ccccc1 [compound 187] | – |
| 15.1 ± 3.34 µM | C=CCN1CC(=O)N2[C@@H](Cc3ccc(NC(N)=O)cc3)C(=O)N(Cc3cccc4scnc34)C[C@@H]2N1C(=O)NCc1ccccc1 [compound 162] | – |
| 14.4 ± 2.77 µM | C=CCN1CC(=O)N2[C@@H](Cc3ccc(O)cc3)C(=O)N(Cc3cccc(OC)c3OS(=O)(=O)CCCCCCCC)C[C@@H]2N1C(=O)NCc1ccccc1 [compound 161] | – |
| 4.98 ± 0.69 µM | C=CCN1CC(=O)N2[C@@H](Cc3ccc(O)cc3)C(=O)N(Cc3cncc(C(=O)OC)c3)C[C@@H]2N1C(=O)NCc1ccccc1 [compound 233] | – |
| 3.87 ± 0.45 µM | C=CCN1CC(=O)N2[C@@H](Cc3ccc(O)cc3)C(=O)N(Cc3cccc(-c4cccnc4)n3)C[C@@H]2N1C(=O)NCc1ccccc1 [compound 217] | – |
| 7.62 ± 1.89 µM | C=CCN1CC(=O)N2[C@@H](Cc3ccc(O)cc3)C(=O)N(Cc3ccc([N+](=O)[O-])c(O)c3)C[C@@H]2N1C(=O)NCc1ccccc1 [compound 259] | – |
| 2.66 ± 0.74 µM | C=CCN1CC(=O)N2[C@@H](Cc3ccc(O)cc3)C(=O)N(Cc3cccc(-c4ccccc4)n3)C[C@@H]2N1C(=O)NCc1ccccc1 [compound 186] | – |
| 5.81 ± 0.58 µM | C=CCN1CC(=O)N2[C@@H](Cc3ccc(O)cc3)C(=O)N(Cc3cccc(NS(N)(=O)=O)c3)C[C@@H]2N1C(=O)NCc1ccccc1 [compound 243] | – |
| 11.8 ± 1.61 µM | C=CCN1CC(=O)N2[C@@H](Cc3ccc(O)cc3)C(=O)N(Cc3csc4cc(NC(=O)NC)ccc34)C[C@@H]2N1C(=O)NCc1ccccc1 [compound 155] | – |
| 4.33 ± 0.5 µM | C=CCN1CC(=O)N2[C@@H](Cc3ccc(O)cc3)C(=O)N(Cc3cccc(OC)c3OC3Cc4ccccc4C3)C[C@@H]2N1C(=O)NCc1ccccc1 [compound 226] | – |
| 4.97 ± 0.73 µM | CN1CC(=O)N2[C@@H](Cc3ccc(O)cc3)C(=O)N(Cc3cccc4scnc34)C[C@@H]2N1C(=O)NCc1ccccc1 [compound 232] | – |

More lines, now with the values behind:

| Compound | IC50 [1] | other results |
| --- | --- | --- |
| C=CCN1CC(=O)N2[C@@H](Cc3ccc(O)cc3)C(=O)N(Cc3ccc(F)c4scnc34)C[C@@H]2N1C(=O)NCc1ccc(F)c(F)c1 [compound 80] | 0.96 ± 0.13 µM | – |
| C=CCN1CC(=O)N2[C@@H](Cc3ccc(O)cc3)C(=O)N(Cc3csc4cc(NC=O)ccc34)C[C@@H]2N1C(=O)NCc1ccccc1 [compound 111] | 1.41 ± 0.21 µM | – |
| C=CCN1CC(=O)N2[C@@H](Cc3ccc(O)cc3)C(=O)N(Cc3ccc4cc[nH]c4c3)C[C@@H]2N1C(=O)NCc1ccccc1 [compound 223] | – | IC50 [2]: 4.01 ± 0.96 µM |
| C=CCN1CC(=O)N2[C@@H](Cc3ccc(O)cc3)C(=O)N(Cc3cccc(-c4ccc(N5CCOCC5)nc4)c3)C[C@@H]2N1C(=O)NCc1ccccc1 [compound 62] | 0.81 ± 0.15 µM | – |
| C=CCN1CC(=O)N2[C@@H](Cc3ccc(OS(N)(=O)=O)cc3)C(=O)N(Cc3cccc4c(C(C)=O)c[nH]c34)C[C@@H]2N1C(=O)NCc1ccccc1 [compound 29] | 0.53 ± 0.24 µM | – |
| C=CCN1CC(=O)N2[C@@H](Cc3ccc(O)cc3)C(=O)N(Cc3cccc4ccn(S(=O)(=O)c5ccc(C)cc5)c34)C[C@@H]2N1C(=O)NCc1ccccc1 [compound 64] | 0.82 ± 0.33 µM | – |
| C=CCN1CC(=O)N2[C@@H](Cc3ccc(ON)cc3)C(=O)N(Cc3ccc(OC)c(Cl)c3)C[C@@H]2N1C(=O)NCc1ccccc1 [compound 147] | 1.99 ± 0.32 µM | – |
| C=CCN1CC(=O)N2[C@@H](Cc3ccc(O)cc3)C(=O)N(Cc3ccccc3N)C[C@@H]2N1C(=O)NCc1ccccc1 [compound 78] | 0.95 ± 0.15 µM | – |
| C=CCN1CC(=O)N2[C@@H](Cc3ccc(O)cc3)C(=O)N(Cc3cccc(NC(C)=O)c3)C[C@@H]2N1C(=O)NCc1ccccc1 [compound 102] | 1.25 ± 0.21 µM | – |
| C=CCN1CC(=O)N2[C@@H](Cc3ccc(OP(=O)(O)O)cc3)C(=O)N(Cc3cccc(OC)c3OC)C[C@@H]2N1C(=O)NCc1ccccc1 [compound 31] | – | IC50 [2]: 0.54 ± 0.08 µM |
| C=CCN1CC(=O)N2[C@@H](Cc3ccc(O)cc3)C(=O)N(Cc3cccc(-c4cccc(N)c4)c3)C[C@@H]2N1C(=O)NCc1ccccc1 [compound 82] | 0.99 ± 0.14 µM | – |
| C=CCN1CC(=O)N2[C@@H](Cc3ccc(O)cc3)C(=O)N(Cc3cccc(-c4nccs4)c3)C[C@@H]2N1C(=O)NCc1ccccc1 [compound 133] | – | IC50 [3]: 1.73 ± 0.22 µM |
| C=CCOc1ccccc1CN1C[C@H]2N(C(=O)CN(CC=C)N2C(=O)NCc2ccccc2)[C@@H](Cc2ccc(O)cc2)C1=O [compound 145] | 1.96 ± 0.27 µM | – |
| C=CCN1CC(=O)N2[C@@H](Cc3ccc(O)cc3)C(=O)N(Cc3ccc(F)c4scnc34)C[C@@H]2N1C(=O)NCCc1ccccc1 [compound 178] | – | IC50 [3]: 2.38 ± 0.75 µM |
| C=CCN1CC(=O)N2[C@@H](Cc3ccc(O)cc3)C(=O)N(Cc3csc4c([N+](=O)[O-])cccc34)C[C@@H]2N1C(=O)NCc1ccccc1 [compound 148] | – | IC50 (Homo sapiens, SW480, read-out: RGA, IC50 (μM) TopF): 10 ± 1.7 µM |
| C=CCN1CC(=O)N2[C@@H](Cc3ccc(O)cc3)C(=O)N(Cc3csc4cc(NC(C)=O)ccc34)C[C@@H]2N1C(=O)NCc1ccccc1 [compound 142] | 1.92 ± 0.28 µM | – |
| C=CCN1CC(=O)N2[C@@H](Cc3ccc(OC(N)=O)cc3)C(=O)N(Cc3ccc(F)cc3F)C[C@@H]2N1C(=O)NCc1ccccc1 [compound 251] | – | IC50 [2]: 1.14 ± 0.07 µM |

| Compound | IC50 [1] | other results |
| --- | --- | --- |
| C=CCN1CC(=O)N2[C@@H](Cc3ccc(O)cc3)C(=O)N(Cc3ccc(F)c4scnc34)C[C@@H]2N1C(=O)NCc1ccc(C)cc1 [compound 103] | 1.26 ± 0.19 µM | – |
| C=CCN1CC(=O)N2[C@@H](Cc3ccc(O)cc3)C(=O)N(Cc3ccccc3N3CCCC3)C[C@@H]2N1C(=O)NCc1ccccc1 [compound 96] | 1.11 ± 0.25 µM | – |
| C=CCN1CC(=O)N2[C@@H](Cc3ccc(O)cc3)C(=O)N(Cc3cccc(C(=O)NCC4CCCCC4)c3)C[C@@H]2N1C(=O)NCc1ccccc1 [compound 101] | 1.24 ± 0.07 µM | – |
| C=CCN1CC(=O)N2[C@@H](Cc3ccc(O)cc3)C(=O)N(Cc3cccc4c(C(=O)C5CC5)c[nH]c34)C[C@@H]2N1C(=O)NCc1ccccc1 [compound 4] | 0.14 ± 0.025 µM | – |
| C=CCN1CC(=O)N2[C@@H](Cc3ccc(OP(=O)(O)O)cc3)C(=O)N(Cc3cccc4c3oc3ccccc34)C[C@@H]2N1C(=O)NCc1ccccc1 [compound 13] | – | IC50 [2]: 0.36 ± 0.13 µM |
| C=CCN1CC(=O)N2[C@@H](Cc3ccc(O)cc3)C(=O)N(Cc3csc4ccc(NCc5ccccc5)cc34)C[C@@H]2N1C(=O)NCc1ccccc1 [compound 55] | 0.74 ± 0.08 µM | – |
| C=CCN1CC(=O)N2[C@@H](Cc3ccc(O)cc3)C(=O)N(Cc3csc4ccc(N)cc34)C[C@@H]2N1C(=O)NCc1ccccc1 [compound 100] | 1.21 ± 0.14 µM | – |
| C=CCN1CC(=O)N2[C@@H](Cc3ccc(O)cc3)C(=O)N(Cc3cccc(-c4ccc(OC)cc4)c3)C[C@@H]2N1C(=O)NCc1ccccc1 [compound 140] | 1.91 ± 0.24 µM | – |
| C=CCN1CC(=O)N2[C@@H](Cc3ccc(OP(=O)(O)O)cc3)C(=O)N(Cc3cccc4ccnn34)C[C@@H]2N1C(=O)NCc1ccccc1 [compound 92] | – | IC50 [2]: 1.04 ± 0.18 µM |
| C=CCN1CC(=O)N2[C@@H](Cc3ccc(O)cc3)C(=O)N(Cc3ccccc3N(C)Cc3ccccc3)C[C@@H]2N1C(=O)NCc1ccccc1 [compound 128] | 1.61 ± 0.59 µM | – |
| C=CCN1CC(=O)N2[C@@H](Cc3ccc(O)cc3)C(=O)N(Cc3csc4cc(NCc5ccccc5)ccc34)C[C@@H]2N1C(=O)NCc1ccccc1 [compound 138] | – | IC50 [3]: 1.86 ± 0.38 µM |
| C=CCN1CC(=O)N2[C@@H](Cc3ccc(O)cc3)C(=O)N(Cc3cccnc3Br)C[C@@H]2N1C(=O)NCc1ccccc1 [compound 125] | 1.57 ± 0.29 µM | – |
| C=CCN1CC(=O)N2[C@@H](Cc3ccc(OP(=O)(O)O)cc3)C(=O)N(Cc3ccc(F)c4scnc34)C[C@@H]2N1C(=O)NCc1ccc2c(c1)OCO2 [compound 77] | – | IC50 [2]: 0.94 ± 0.07 µM |
| C=CCN1CC(=O)N2[C@@H](Cc3ccc(O)cc3)C(=O)N(Cc3cccc(C(=O)NC4CCCC4)c3)C[C@@H]2N1C(=O)NCc1ccccc1 [compound 266] | – | IC50 [3]: 9.43 ± 1.65 µM |
| C=CCN1CC(=O)N2[C@@H](Cc3ccc(O)cc3)C(=O)N(Cc3cccc4c3ncn4CCC)C[C@@H]2N1C(=O)NCc1ccccc1 [compound 71] | 0.9 ± 0.08 µM | – |
| C=CCN1CC(=O)N2[C@@H](Cc3ccc(O)cc3)C(=O)N(Cc3cccc4c(C#N)cn(S(=O)(=O)c5ccccc5)c34)C[C@@H]2N1C(=O)NCc1ccccc1 [compound 11] | 0.31 ± 0.09 µM | – |
